Measured values taken from publication PMC11079029, “Intramolecular autoinhibition regulates the selectivity of PRPF40A tandem WW domains for proline-rich motifs” (Nature Communications, 2024).
Like-named read-outs stand apart in the source and are kept apart here.

Assays:
PRPF40A N-ext-WW12 = test: NMR titration (1H-15N and 1H-13C HSQC) of N-ext-WW12 with SF1 peptides; type: binding, human; conditions: NMR titration of N-ext-WW12, ratios 1:1 up to 1:4
Experimental: (§1) NMR samples were prepared at concentrations ranging 100–1000 μM in buffer containing 20 mM sodium phosphate pH 6.5, 100 mM NaCl, 1 mM DTT, and 10% or 100% D2O, and measured at 25 °C (except stated otherwise) in 900-, 800-, 600- and 500-MHz Bruker Avance III NMR spectrometers equipped with cryogenic triple resonance gradient probes. Topspin 4.1.0 (Bruker) software was used for NMR data acquisition. Spectra were processed with NMRpipe 8.9[76] and analyzed using ccpnNMR Analysis 2.5 software.
(§2) ^15N-labeled PRPF40A proteins (WW1, WW2, WW12, and N-extWW12) at around 100 μM concentration were titrated with increasing concentration ratios of polyproline or SF1 peptides (GB1 tagged) until reaching saturation, when possible; ^1H-^15N HSQC experiments and in some cases ^1H-^13C HSQC experiments (using double-labeled PRPF40A proteins) were acquired at each titration point. The chemical shift perturbation (CSP) was weighted using the Eqs. (1) and (2)[89].1 CSP(HN)=0.5⋅ΔδH2+0.14⋅ΔδN2 2 CSP(HC)=0.5⋅ΔδH2+0.3⋅ΔδC2

PRPF40A WW12 = test: NMR titration (1H-15N HSQC, chemical shift perturbation) of WW12 with polyproline or SF1 peptides; type: binding, human; conditions: 15N-labelled WW12 around 100 μM, unlabelled GB1-tagged peptide, 25 °C
Experimental: as §1, §2

PRPF40A Mut N-ExtWW12 = biological target: T1, PRPF40A Mut N-ExtWW12 (Homo sapiens, UniProt O75400, L125A/P123A/P126A/P127A/P78A/P79A/P81A/V80A); test: ITC of mutant N-ext-WW12 (PPVP/PALPP motifs changed to alanine) with SF1WWbs; type: binding
T1 construct: WW12long 141–248, and N-ext-WW12 56–236; 6xHis-TEV site (N, cleaved yes); made in house; host or cells: Escherichia coli BL21(DE3)
T1 sequence (O75400 56-236 P78A/P79A/V80A/P81A/P123A/L125A/P126A/P127A limits assumed): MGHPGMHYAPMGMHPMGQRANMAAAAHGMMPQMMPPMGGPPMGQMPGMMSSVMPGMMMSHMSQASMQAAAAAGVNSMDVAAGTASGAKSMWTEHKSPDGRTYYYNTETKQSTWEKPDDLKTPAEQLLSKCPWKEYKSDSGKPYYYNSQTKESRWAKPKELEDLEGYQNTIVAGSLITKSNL
Source text: While only partial backbone chemical shift assignments of this construct (69% completeness), N-ext-WW12, could be possible due to a highly repetitive sequence, a complete assignment of the methyl groups was achieved. We then performed a titration with the high-affinity peptide, SF1WWbs, by NMR. […] To further support this conclusion, we prepared a mutant version of the N-ext-WW12 construct, changing these two motifs to alanine residues, and observed clear shifting of NMR signals towards the free WW12 spectrum in the short version of the tandem. This corroborates that mainly these two proline-rich motifs govern the intramolecular interacting region (Supplementary Fig. 19).
To further confirm this analysis, we titrated SF1WWbs and the mutant version of the N-ext-WW12 construct (changing the PPVP/PALPP motifs for alanine residues).
PRPF40A isoform 1 sequences (N-ter 1–310, WW12short 141–223, WW12 141–236, WW12long 141–248, and N-ext-WW12 56–236) were amplified from a purchased DNA fragment (IDT) and cloned using NcoI and KpnI restriction sites into a pETM11 vector encoding 6xHis and TEV cleavage site as a N-terminal tag. SF1 (Pro A 410–468, Pro B 468–539, Pro C 539–594, Pro D 594–639, Pro BC 468–594, Pro CD 539–639, Pro BCD 468–639 and Pro ABCD 410–639) and SF3A1 (Middle Pro 364–413 and C-ter Pro 552–683) constructs were prepared in a similar manner using a pET24 vector with a 6xHis, GB1 and TEV cleavage site as N-terminal fusion cassette. 16-mer SF1 constructs (Table 1) and polyproline peptides (P6, P8, P10, P13, P16, P19, P22, P25, and P29) were cloned in the same pET24 vector with GB1 tag by direct ligation of purchased oligonucleotides (Eurofins). All peptide sequences contained N and C-terminal common residues to avoid boundary effects on binding: TEVsite-GAMSGS-peptide-SGSN. Mutants of PRPF40A WW12 and N-ext-WW12 constructs were prepared by site-directed mutagenesis. The truncated version of PRPF40A WW12 (141-217) was a gift from Dr. María Macías (IRB, Spain). All used oligonucleotides were purchased from Eurofins Genomics and are shown in Supplementary Table 6.
Experiments were conducted on a MicroCAl PEAQ-ITC (Malvern Instruments, UK) at 25 °C in 20 mM sodium phosphate pH 6.5 and 100 mM NaCl. PRPF40A was titrated into N-terminal GB1 tagged SF1 or polyproline constructs and vice versa with similar results. Protein concentrations in the cell were around 20–40 μM, while in the syringe ranged between 200 and 500 μM. Experiments were performed at least in duplicate with injections of 1.5 μL (0.4 μL for first point) separated by 150 s delays to recover thermal power baseline and continuous stirring in the cell (750 rpm) for correct mixing. The reference cell was filled with water in all experiments. Data were processed by removing the blank experiment (using digested GB1 fusion protein) and adjusted to one-site binding model with Malvern PEAQ-ITC Analysis software (Malvern Instruments, UK).

PPLPPGAPPPPPPPPP [SF1WWbs] was tested. Which “displacement of the intramolecular N-terminal motifs (methyl signals Val 80, Val 129)” value (PRPF40A N-ext-WW12) did it give?
The value was “able to displace the intramolecular interaction”.

What about the “binding by NMR titration, exchange regime” value (PRPF40A WW12) of the same sequence?
The value was “slow exchange regime”.

And the “N (sites)” value (PRPF40A Mut N-ExtWW12; ITC as E10)?
Its value is 0.84 ± 0.05 sites.

What about the “DH” value (PRPF40A Mut N-ExtWW12; ITC binding enthalpy, as E10) of the same sequence?
The value was -87.8 ± 9.2 kJ/mol.

What about the “Kd (µM)” value (PRPF40A Mut N-ExtWW12; ITC, 25 °C, 20 mM sodium phosphate pH 6.5, 100 mM NaCl, GB1-tagged SF1 16-mer, N-ext-WW12 with PPVP/PALPP changed to alanine, at least duplicates) of the same sequence?
The value was “comparable to the isolated WW tandem”.

What about the Kd (PRPF40A Mut N-ExtWW12; ITC, 25 °C, 20 mM sodium phosphate pH 6.5, 100 mM NaCl, GB1-tagged SF1 16-mer, N-ext-WW12 with PPVP/PALPP changed to alanine, at least duplicates, read-out: Kd) of the same sequence?
The Kd was 2210 ± 240 nM.

What about the Kd (PRPF40A Mut N-ExtWW12; ITC, individual value 1 (replicate 1), read-out: Kd Values with Nter Ext WW12 MUTANT, individual value) of the same sequence?
Its Kd is 2440 nM.

And the Kd (PRPF40A Mut N-ExtWW12; ITC, individual value 2 (replicate 2), read-out: Kd Values with Nter Ext WW12 MUTANT, individual value)?
The Kd was 1980 nM.
